From BindingDB's records for doi:10.1016/j.bmcl.2013.01.064 (Bristol Myers Squibb, 2013)

target: Potassium voltage-gated channel subfamily A member 5 (Homo sapiens, UniProt P22460); experiment: Antagonist activity at human Kv1.5 expressed in mouse L929 cells assessed as inhibition of delayed rectifier repolarization current by patch clamp assay
Sequence (P22460 whole entry): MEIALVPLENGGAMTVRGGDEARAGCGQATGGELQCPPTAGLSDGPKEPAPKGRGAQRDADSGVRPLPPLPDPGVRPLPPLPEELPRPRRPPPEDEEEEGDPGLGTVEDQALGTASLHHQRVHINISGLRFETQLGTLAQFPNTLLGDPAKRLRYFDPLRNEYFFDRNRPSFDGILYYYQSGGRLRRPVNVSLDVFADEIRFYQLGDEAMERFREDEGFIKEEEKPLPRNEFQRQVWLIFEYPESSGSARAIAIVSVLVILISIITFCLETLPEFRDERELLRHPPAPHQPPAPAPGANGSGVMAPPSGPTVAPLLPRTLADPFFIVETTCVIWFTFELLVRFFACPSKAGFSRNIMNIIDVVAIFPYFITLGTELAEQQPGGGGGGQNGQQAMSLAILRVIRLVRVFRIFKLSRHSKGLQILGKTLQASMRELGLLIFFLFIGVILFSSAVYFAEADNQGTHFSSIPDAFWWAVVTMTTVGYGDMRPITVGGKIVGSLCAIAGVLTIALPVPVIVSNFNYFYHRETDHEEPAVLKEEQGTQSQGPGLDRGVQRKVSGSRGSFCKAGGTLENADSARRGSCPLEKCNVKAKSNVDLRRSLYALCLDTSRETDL

Compared with `CC1=Nc2cc(C(F)(F)F)nn2[C@H](c2ccc(Cl)c(Cl)c2)C1c1ncnn1C1CCC(C(F)(F)F)CC1` (stereo partly drawn), `CCOc1cccc(-n2ncnc2C2C(C)=Nc3cc(C(F)(F)F)nn3[C@@H]2c2ccc(Cl)c(Cl)c2)n1` (stereo partly drawn) is 2.7-fold lower in IC50: 607 nM for the first, 223 nM for the second. The second is the more potent here.

`CC1=Nc2ccnn2[C@H](c2ccc(Cl)c(Cl)c2)C1c1ncnn1C(C)(C)C` (stereo partly drawn) was tested, and the IC50 was 223 nM.
